Experiment [1] concerns Rattus norvegicus. The experiment can be described thus: Wound healing activity in Wistar albino rat dorsal back excision wound model assessed as wound closure applied topically as cream base ointment over 100/500 mm'2 scar measured after 4 days. The format is functional.
The subject of experiment [2] is Rattus norvegicus. Kind of experiment: Wound healing activity in Wistar albino rat dorsal back excision wound model assessed as wound closure applied topically as cream base ointment over 100/500 mm'2 scar measured after 8 days. The format is functional.
The test system of experiment [3] is Rattus norvegicus. The experiment can be described thus: Wound healing activity in Wistar albino rat dorsal back excision wound model assessed as wound closure applied topically as cream base ointment over 100/500 mm'2 scar measured after 12 days. The format is functional.
Experiment [4] relates to Rattus norvegicus. Kind of experiment: Wound healing activity in Wistar albino rat dorsal back excision wound model assessed as wound closure applied topically as cream base ointment over 100/500 mm'2 scar measured after 16 days. The format is functional.
In experiment [5] the test system is Rattus norvegicus. Kind of experiment: Wound healing activity in Wistar albino rat dorsal back excision wound model assessed as epithelization period applied topically as cream base ointment over 100/500mm'2 scar. Format: functional.
The subject of experiment [6] is Rattus norvegicus. Kind of experiment: Wound healing activity in Wistar albino rat dorsal back incision wound model assessed as tensile strength applied topically as cream base ointment over 100/500 mm'2 scar by tensiometry. The format is functional.
Experiment [7] deals with Pseudomonas aeruginosa. The experiment can be described thus: Antibacterial activity against Pseudomonas aeruginosa ATCC 20852 after 48 hrs by microdilution method. The format is functional. Conditions: ATCC 20852, 48 h.
Experiment [8] concerns Klebsiella pneumoniae. The experiment can be described thus: Antibacterial activity against Klebsiella pneumoniae MTCC 618 after 48 hrs by microdilution method. Format: functional. Conditions: MTCC 618, 48 h.
For experiment [9], the system named is Escherichia coli. The experiment can be described thus: Antibacterial activity against Escherichia coli after 48 hrs by microdilution method. The format is functional.
Experiment [10] concerns Staphylococcus aureus. Kind of experiment: Antibacterial activity against Staphylococcus aureus ATCC 29737 after 48 hrs by microdilution method. The format is functional. Conditions: ATCC 29737, 48 h.
Experiment [11] has as its system Streptococcus pyogenes. The experiment can be described thus: Antibacterial activity against Streptococcus pyogenes NCIM 2608 after 48 hrs by microdilution method. Format: functional. To be noted: NCIM 2608, 48 h.
Experiment [12] concerns Bacillus subtilis. Kind of experiment: Antibacterial activity against Bacillus subtilis NCIM 2010 by microdilution method. The format is functional.
Experiment [13] concerns Pseudomonas aeruginosa. The experiment can be described thus: Antibacterial activity against Pseudomonas aeruginosa ATCC 20852 at 10 mg/ml after 48 hrs by agar well diffusion method. The format is functional. Conditions: ATCC 20852, 48 h, read-out: DIZ.
Experiment [14] has as its system Klebsiella pneumoniae. Kind of experiment: Antibacterial activity against Klebsiella pneumoniae MTCC 618 at 10 mg/ml after 48 hrs by agar well diffusion method. The format is functional. Conditions: MTCC 618, 48 h, read-out: DIZ.
Experiment [15] relates to Escherichia coli. Kind of experiment: Antibacterial activity against Escherichia coli at 10 mg/ml after 48 hrs by agar well diffusion method. To be noted: read-out: DIZ. Format: functional.
Experiment [16] deals with Staphylococcus aureus. Kind of experiment: Antibacterial activity against Staphylococcus aureus ATCC 29737 at 10 mg/ml after 48 hrs by agar well diffusion method. Format: functional. To be noted: ATCC 29737, 48 h, read-out: DIZ.
The subject of experiment [17] is Streptococcus pyogenes. The experiment can be described thus: Antibacterial activity against Streptococcus pyogenes NCIM 2608 at 10 mg/ml after 48 hrs by agar well diffusion method. The format is functional. Conditions: NCIM 2608, 48 h, read-out: DIZ.
The subject of experiment [18] is Bacillus subtilis. The experiment can be described thus: Antibacterial activity against Bacillus subtilis NCIM 2010 at 10 mg/ml after 48 hrs by agar well diffusion method. Format: functional. Conditions: NCIM 2010, 48 h, read-out: DIZ.
For experiment [19], the system named is Nucleic Acid. The experiment can be described thus: Binding affinity to DNA assessed as reduction of Uv-vis spectra absorption at 293 nm wavelength at 0.5 uM by DNA intercalation assay. Format: nucleic-acid assay. Set-up: scale not given: the % may be the effect or the level left.
Experiment [20] deals with Nucleic Acid. Kind of experiment: Intrinsic binding affinity to DNA assessed as hypochromism by absorption spectral analysis. The format is nucleic-acid assay.
Experiment [21] has as its system Calf thymus DNA. The experiment can be described thus: Binding affinity to calf thymus DNA assessed as melting temperature. Conditions: Bos taurus. Format: nucleic-acid assay.
In experiment [22] the test system is Calf thymus DNA. The experiment can be described thus: Binding affinity to calf thymus DNA assessed as increase in viscosity at 100 uM. To be noted: Bos taurus. Format: nucleic-acid assay.
A short description of experiment [23]: Antioxidant activity assessed as inhibition of phenazine methosulphate-NADH coupling reaction-induced superoxide anion production at 60 ug/ml. The format is functional. Set-up: scale not given: the % may be the effect or the level left.
Experiment [24] can be described thus: Antioxidant activity assessed as hydrogen peroxide scavenging activity at 60 ug/ml by spectrophotometry. The format is functional.
Experiment [25] has as its system Radical scavenging activity. Kind of experiment: Antioxidant activity assessed as DPPH radical scavenging activity. Format: functional.
Experiment [26] can be described thus: Antioxidant activity assessed as increase in reducing power at 20 to 60 ug/mL. The format is functional.
In experiment [27] the test system is Rattus norvegicus. Kind of experiment: Wound healing activity in Wistar albino rat dorsal back excision wound model applied topically as cream base ointment over 100/500 mm'2 scar measured after 18 days. The format is functional.
Experiment [28] deals with Rattus norvegicus. The experiment can be described thus: Wound healing activity in Wistar albino rat dorsal back excision wound model applied topically as 1 %W/W gel base ointment measured after 18 days. The format is functional.
Experiment [29] relates to Nucleic Acid. The experiment can be described thus: Intrinsic binding affinity to DNA by absorption spectral analysis. Format: nucleic-acid assay.
Experiment [30] is described as follows: Antioxidant activity assessed as hydrogen peroxide scavenging activity by spectrophotometry. The format is functional.
Experiment [31] has as its system Rattus norvegicus. Kind of experiment: Wound healing activity in Wistar albino rat dorsal back excision wound model assessed as wound closure applied topically as 1 %W/W gel base ointment measured after 4 days. The format is functional.
In experiment [32] the test system is Rattus norvegicus. The experiment can be described thus: Wound healing activity in Wistar albino rat dorsal back excision wound model assessed as wound closure applied topically as 1 %W/W gel base ointment measured after 8 days. The format is functional.
Experiment [33] concerns Rattus norvegicus. Kind of experiment: Wound healing activity in Wistar albino rat dorsal back excision wound model assessed as wound closure applied topically as 1 %W/W gel base ointment measured after 12 days. Format: functional, organism-based.
Experiment [34] has as its system Rattus norvegicus. Kind of experiment: Wound healing activity in Wistar albino rat dorsal back excision wound model assessed as wound closure applied topically as 1 %W/W gel base ointment measured after 16 days. Format: functional.
The subject of experiment [35] is Nucleic Acid. Kind of experiment: Binding affinity to DNA assessed as reduction of Uv-vis spectra absorption at 312 nm wavelength at 0.5 uM by DNA intercalation assay. The format is nucleic-acid assay. Set-up: scale not given: the % may be the effect or the level left.
Experiment [36] has as its system Escherichia coli. Kind of experiment: Antibacterial activity against Escherichia coli at 10 ug/ml after 48 hrs by agar well diffusion method. To be noted: read-out: DIZ.
Experiment [37] deals with Pseudomonas aeruginosa. Kind of experiment: microbe, parasite or virus in culture. Conditions: ATCC 20852, 48 h, read-out: DIZ.
Description: Antibacterial activity against Pseudomonas aeruginosa ATCC 20852 at 10 ug/ml after 48 hrs by agar well diffusion method
Experiment [38] relates to Klebsiella pneumoniae. Kind of experiment: microbe, parasite or virus in culture. Conditions: MTCC 618, 48 h, read-out: DIZ.
Description: Antibacterial activity against Klebsiella pneumoniae MTCC 618 at 10 ug/ml after 48 hrs by agar well diffusion method
For experiment [39], the system named is Staphylococcus aureus. Kind of experiment: microbe, parasite or virus in culture. To be noted: ATCC 29737, 48 h, read-out: DIZ.
Description: Antibacterial activity against Staphylococcus aureus ATCC 29737 at 10 ug/ml after 48 hrs by agar well diffusion method
Experiment [40] has as its system Streptococcus pyogenes. Kind of experiment: microbe, parasite or virus in culture. To be noted: NCIM 2608, 48 h, read-out: DIZ.
Description: Antibacterial activity against Streptococcus pyogenes NCIM 2608 at 10 ug/ml after 48 hrs by agar well diffusion method
For experiment [41], the system named is Bacillus subtilis. Kind of experiment: microbe, parasite or virus in culture. To be noted: NCIM 2010, 48 h, read-out: DIZ.
Description: Antibacterial activity against Bacillus subtilis NCIM 2010 at 10 ug/ml after 48 hrs by agar well diffusion method

In brackets after ≈: the same amount, converted by molar mass. Activity calls are given as the source filed them. The rule behind the calls is not given here.

On to `O=Cc1cc2ccc3ccccc3c2nc1S`, for which the Activity in the experiment on Rattus norvegicus [1] was found to be 45.35%; in the experiment with Rattus norvegicus [2] it was 75.63%; in the experiment on Rattus norvegicus [3], 85.94%; in the experiment with Rattus norvegicus [4], 96.24%; in the experiment on Rattus norvegicus [5] it was 18 days; with Rattus norvegicus [6] it was 544.83 g. Besides, the Activity is 20.3% in the experiment on Nucleic Acid [19]; 20.5% in the experiment with Nucleic Acid [20]; 65% in [23]; 68% in experiment [24]; 55% in experiment [25]; 100% in the experiment with Rattus norvegicus [27]. Further, the Activity in the experiment on Rattus norvegicus [28] is 95.71%; in experiment [30] it was “Dose-dependent effect”. Besides, the MIC in the experiment with Pseudomonas aeruginosa [7] came out at 16 µg/mL (≈ 66.9 µM); in the experiment with Klebsiella pneumoniae [8], 12.5 µg/mL (≈ 52.2 µM); in the experiment on Escherichia coli [9] it was 32 µg/mL (≈ 134 µM); against Staphylococcus aureus [10], 11 µg/mL (≈ 46 µM); against Streptococcus pyogenes [11], 12.5 µg/mL (≈ 52.2 µM); with Bacillus subtilis [12], 16.2 µg/mL (≈ 67.9 µM). For the same compound, the zone of inhibition at 10000 µg/mL in the experiment on Pseudomonas aeruginosa [13] worked out at 11.6 mm; with Klebsiella pneumoniae [14], 13.6 mm; with Escherichia coli [15], 12.3 mm; in the experiment on Staphylococcus aureus [16], 19.4 mm; with Streptococcus pyogenes [17], 17.4 mm; with Bacillus subtilis [18], 15.2 mm. Besides, the Tm in the experiment on Calf thymus DNA [21] is 60 °C. For the same compound, the result (in the experiment on Calf thymus DNA [22]; in experiment [26]) was Active. In the experiment on Nucleic Acid [29], this compound gave a Kb of 2.7 ×10⁵ /M.
Consider `NC(=O)N/N=C/c1ccc([N+](=O)[O-])o1` [NITROFURAZONE], for which the Activity was 14 days with Rattus norvegicus [5]; 599 g in the experiment with Rattus norvegicus [6]; 55.68% with Rattus norvegicus [31]; 87.21% in the experiment on Rattus norvegicus [32]; 97.68% with Rattus norvegicus [33]; 100% in the experiment on Rattus norvegicus [34].
As to `Cc1cc(C(C)(C)C)c(O)c(C(C)(C)C)c1`, the Activity in experiment [23] worked out at 51%; in experiment [25] it was 48%. For the same compound, in experiment [24], the outcome was Active.
On to `O=Cc1cc2ccc3ccccc3c2nc1[SeH]`, for which the Activity with Rattus norvegicus [1] stood at 53.65%; in the experiment with Rattus norvegicus [2], 85.26%; in the experiment with Rattus norvegicus [3], 95.7%; with Rattus norvegicus [4], 100%; with Rattus norvegicus [5] it was 16 days; in the experiment with Rattus norvegicus [6], 582.33 g. Further, the Activity in the experiment with Nucleic Acid [35] was 18.2%; with Nucleic Acid [20], 25.1%; in [23], 76%; in [24], 74%; in experiment [25] it was 61%; in [30], “Dose-dependent effect”. Besides, the MIC in the experiment on Pseudomonas aeruginosa [7] was determined as 16 µg/mL (≈ 55.9 µM); in the experiment on Klebsiella pneumoniae [8] it was 25 µg/mL (≈ 87.4 µM); with Escherichia coli [9], 25 µg/mL (≈ 87.4 µM); against Staphylococcus aureus [10] it was 8 µg/mL (≈ 28 µM); in the experiment on Streptococcus pyogenes [11], 12.5 µg/mL (≈ 43.7 µM); with Bacillus subtilis [12] it was 16.2 µg/mL (≈ 56.8 µM). The zone of inhibition at 10000 µg/mL in the experiment on Pseudomonas aeruginosa [13] is 12.2 mm; with Klebsiella pneumoniae [14] it was 14.5 mm; in the experiment with Escherichia coli [15], 17.2 mm; in the experiment with Staphylococcus aureus [16], 22.8 mm; in the experiment with Streptococcus pyogenes [17], 19.5 mm; with Bacillus subtilis [18], 20.6 mm. The Tm in the experiment on Calf thymus DNA [21] turned out to be 58 °C. Besides, the outcome (in the experiment with Calf thymus DNA [22]; in experiment [26]) was Active. This compound also showed a Kb in the experiment with Nucleic Acid [29] of 3.8 ×10⁶ /M.
For the compound `O=C(O)c1cn(C2CC2)c2cc(N3CCNCC3)c(F)cc2c1=O` [CIPROFLOXACIN], the MIC in the experiment with Klebsiella pneumoniae [8] came to 12.5 µg/mL (≈ 37.7 µM); in the experiment with Escherichia coli [9], 6.5 µg/mL (≈ 19.6 µM); with Staphylococcus aureus [10], 6.75 µg/mL (≈ 20.4 µM); with Streptococcus pyogenes [11] it was 6.25 µg/mL (≈ 18.9 µM); against Bacillus subtilis [12], 12.5 µg/mL (≈ 37.7 µM). For the same compound, the zone of inhibition at 10 µg/mL is 19.2 mm in the experiment with Escherichia coli [36]; 23.3 mm in the experiment on Pseudomonas aeruginosa [37]; 20.1 mm in the experiment on Klebsiella pneumoniae [38]; 21.4 mm with Staphylococcus aureus [39]; 20.8 mm with Streptococcus pyogenes [40]; 21.3 mm in the experiment with Bacillus subtilis [41].
With `COc1ccc(O)c(C(C)(C)C)c1.COc1ccc(O)cc1C(C)(C)C`, the Activity was found to be 81% in [23] and 64% in experiment [25]. In addition, the outcome in experiment [24] was Active.
